Values quoted from earlier work in patent US5594133A, “Crystalline acid addition salts of diastereomerically pure 1-(2,2-dimethylpropinonyloxy)-ethyl-3-cephem-4-carboxylate” (Hoechst Aktiengesellschaft, priority 1991, dated 1997).

Tests used:
[1] = T. Nishimura et al., J. Antibiotics XL (1987) 81-90
[2] = EP-A-0 329 008

splitting by endogenous enzymes into the cephalosporin containing the free carboxyl group ([2]; after absorption) | enteral absorption ([2]; various animal species) | SMILES | influence of the stereochemistry in the 1-position of the ethyl ester group on enteral absorbability [1]
 |  | CC(OC(=O)OC1CCCCC1)OC(=O)C1=C(CSc2nnnn2CCN(C)C)CS[C@@H]2[C@H](NC(=O)Cc3csc(N)n3)C(=O)N12 (stereo partly drawn) [cefotiam-hexetil] | no influence on enteral absorbability
split again rapidly and completely | absorbed well enterally | COCC1=C(C(=O)OC(C)OC(=O)C(C)(C)C)N2C(=O)C(NC(=O)/C(=N\O)c3csc(N)n3)[C@H]2SC1 (stereo partly drawn) [ester of the formula I, 1-(2,2-dimethylpropionyloxy)-ethyl 7-[2-(2-aminothiazol-4-yl)-2-(Z)-hydroxyimino-acetamido]-3-methoxymethyl-3-cephem-4-carboxylate] | 
